The subject of experiment [1] is Esch. coli L47 SKF 12140. In words: MIC, microbroth dilution. It is filed as cell-based, Escherichia coli. The note with it: inocula 10^4 to 10^5 CFU/ml, Iso-Sensitest broth, 18-24 h, 37° C. As for the experimental part: (§1) MIC for Propionibacterium aches, and Bacteroides fragilis are determined by agar dilution (inocula 10^4 /10^5 CFU/spot). MIC for other organisms are determined by microbroth dilution (inocula 10^4 to 10^5 CFU/ml). Incubation times are 18-24 h, except for Haemophilus influenzae, P. acnes, B. fragilis (48 h). All organisms are incubated at 37° C.; H. influenzae is incubated in a 5% CO2 atmosphere, anaerobes in an anaerobic gas mixture. Media used are: Iso-Sensitest broth (Oxoid) (Staphylococci, Streptococcus faecalis, Escherichia coli, Proteus vulgaris; brain heart infusion broth (Difco)+1% Supplement C (Difco) (H. influenzae); The minimal inhibitory concentrations (MIC, microgram/ml) for some microorganisms are reported below in Table VII.
Background: Broth dilution looks for growth in wells or tubes with falling amounts of substance.

Experiment [2] relates to Staph. epidermidis L147 ATCC 12228. In words: MIC, microbroth dilution. It counts as cell-based. The note with it: inocula 10^4 to 10^5 CFU/ml, Iso-Sensitest broth, 18-24 h, 37° C. The method, then: as §1
The test system of experiment [3] is Staph. aureus L165 Tour. In words: MIC, microbroth dilution. The note with it: inocula 10^4 to 10^5 CFU/ml, Iso-Sensitest broth, 18-24 h, 37° C. It is filed as cell-based. As for the experimental part:
as §1

In experiment [4] the test system is Strep. pneumoniae L44 UC41. In words: MIC, microbroth dilution. It counts as cell-based. The note with it: inocula 10^4 to 10^5 CFU/ml, 18-24 h, 37° C. As for the experimental part:
as §1

The test system of experiment [5] is Haemophilus Influenzae type B. As to the kind of experiment: MIC, microbroth dilution. It is filed as cell-based. The note with it: brain heart infusion broth +1% Supplement C, 48 h, 37° C., 5% CO2. As for the experimental part: as §1
In experiment [6] the test system is Staph. haemolyticus L602. As to the kind of experiment: MIC, microbroth dilution. It is filed as cell-based. The note with it: inocula 10^4 to 10^5 CFU/ml, Iso-Sensitest broth, 18-24 h, 37° C. The method, then: as §1
Experiment [7] has as its system Prot. vulgaris ATCC 881. In words: MIC, microbroth dilution. It counts as cell-based, Proteus vulgaris. The note with it: inocula 10^4 to 10^5 CFU/ml, Iso-Sensitest broth, 18-24 h, 37° C. The method, then: as §1
The test system of experiment [8] is Strep. faecalis L149 ATCC 7080. As to the kind of experiment: MIC, microbroth dilution. It counts as cell-based, Streptococcus faecalis. The note with it: inocula 10^4 to 10^5 CFU/ml, Iso-Sensitest broth, 18-24 h, 37° C. The method, then: as §1
In experiment [9] the test system is Prop. acnes L1014 ATCC 6919. As to the kind of experiment: MIC, agar dilution. It counts as cell-based, P. acnes. The note with it: inocula 10^4 /10^5 CFU/spot, 48 h, 37° C., anaerobic gas mixture. The method, then: as §1
On the technique in general: Agar dilution tests growth on a series of plates holding different concentrations.

Experiment [10] relates to Bact. fragilis L1010 ATCC 23745. In words: MIC, agar dilution. It counts as cell-based, Bacteroides fragilis. The note with it: inocula 10^4 /10^5 CFU/spot, 48 h, 37° C., anaerobic gas mixture. As for the experimental part:
as §1

On to `CNC(=O)CC1NC(=O)c2nc(sc2COC)C(C(C)C)NC(=O)c2csc(n2)-c2ccc(-c3nc(C(=O)NC(CCSC)C(=O)O)cs3)nc2-c2csc(n2)-c2csc(n2)C(C(O)c2ccccc2)NC(=O)CNC(=O)c2nc1sc2C` (stereo not drawn) [Compound 8], for which the MIC is above 128 microgram/ml in experiment [1]; 2 microgram/ml in experiment [2]; 0.25 microgram/ml in [3]; 4 microgram/ml in experiment [4]; 64 microgram/ml in [5]; 2 microgram/ml in experiment [6]. The MIC is above 128 microgram/ml in experiment [7], 0.25 microgram/ml in [8], below 0.13 microgram/ml in [9] and 32 microgram/ml in experiment [10].

With `CNC(=O)CC1NC(=O)c2nc(sc2COC)C(C(C)C)NC(=O)c2csc(n2)-c2ccc(-c3nc(C(=O)NCCCCCC(=O)O)cs3)nc2-c2csc(n2)-c2csc(n2)C(C(O)c2ccccc2)NC(=O)CNC(=O)c2nc1sc2C` (stereo not drawn) [Compound 19], the MIC in [1] was above 128 microgram/ml; in experiment [2], 0.06 microgram/ml; in experiment [3], 0.06 microgram/ml; in [4], 0.25 microgram/ml; in experiment [5], 2 microgram/ml; in [6], 0.25 microgram/ml. The MIC is above 128 microgram/ml in experiment [7], 0.06 microgram/ml in experiment [8], 0.008 microgram/ml in experiment [9] and 4 microgram/ml in [10].

`CNC(=O)CC1NC(=O)c2nc(sc2COC)C(C(C)C)NC(=O)c2csc(n2)-c2ccc(-c3nc(C(=O)NCCSCCC(=O)O)cs3)nc2-c2csc(n2)-c2csc(n2)C(C(O)c2ccccc2)NC(=O)CNC(=O)c2nc1sc2C` (stereo not drawn) [Compound 39]: the MIC in experiment [1] is recorded as above 128 microgram/ml; in experiment [2], 0.25 microgram/ml; in experiment [3], 0.13 microgram/ml; in experiment [4], 4 microgram/ml; in [5], 1 microgram/ml; in experiment [6], 2 microgram/ml. Also, the MIC in experiment [7] is listed as above 128 microgram/ml; in [8] it was at most 0.13 microgram/ml; in [9], at most 0.13 microgram/ml; in [10] it was 8 microgram/ml.

Take `CNC(=O)CC1NC(=O)c2nc(sc2COC)C(C(C)C)NC(=O)c2csc(n2)-c2ccc(-c3nc(C(=O)NCCCC(=O)O)cs3)nc2-c2csc(n2)-c2csc(n2)C(C(O)c2ccccc2)NC(=O)CNC(=O)c2nc1sc2C` (stereo not drawn) [Compound 18]: the MIC in experiment [1] was above 128 microgram/ml; in [2], 0.25 microgram/ml; in [3], 0.25 microgram/ml; in experiment [4], 1 microgram/ml; in experiment [5] it was 2 microgram/ml; in [6], 1 microgram/ml. Moreover, the MIC in experiment [7] is listed as above 128 microgram/ml; in [8], 0.13 microgram/ml; in [9], 0.016 microgram/ml; in experiment [10], 2 microgram/ml.

Take `CNC(=O)CC1NC(=O)c2nc(sc2COC)C(C(C)C)NC(=O)c2csc(n2)-c2ccc(-c3nc(C(=O)NCC(=O)N4CCCC4C(N)=O)cs3)nc2-c2csc(n2)-c2csc(n2)C(C(O)c2ccccc2)NC(=O)CNC(=O)c2nc1sc2C` (stereo not drawn) [Compound 14]: the MIC in [1] is above 128 microgram/ml; in [2], 0.13 microgram/ml; in experiment [3], 0.06 microgram/ml; in experiment [4], above 128 microgram/ml; in experiment [5] it was above 128 microgram/ml; in [6], 0.25 microgram/ml. The MIC in experiment [7] was above 128 microgram/ml; in experiment [8], 0.06 microgram/ml; in experiment [9], 0.03 microgram/ml; in experiment [10] it was above 128 microgram/ml.

Consider `CNC(=O)CC1NC(=O)c2nc(sc2COC)C(C(C)C)NC(=O)c2csc(n2)-c2ccc(-c3nc(C(=O)NCCCN)cs3)nc2-c2csc(n2)-c2csc(n2)C(C(O)c2ccccc2)NC(=O)CNC(=O)c2nc1sc2C.O=C(O)C(F)(F)F` (stereo not drawn) [Compound 36], for which the MIC in experiment [1] is on record as above 128 microgram/ml; in experiment [2], 0.13 microgram/ml; in experiment [3], 0.13 microgram/ml; in experiment [4], 4 microgram/ml; in experiment [5] it was above 128 microgram/ml; in [6] it was 0.13 microgram/ml. In addition, the MIC in experiment [7] is recorded as above 128 microgram/ml; in experiment [8], 0.13 microgram/ml; in experiment [9], 0.06 microgram/ml; in [10] it was above 128 microgram/ml.

On to `CNC(=O)CC1NC(=O)c2nc(sc2COC)C(C(C)C)NC(=O)c2csc(n2)-c2ccc(-c3nc(C(=O)NCCCCCCCC(=O)O)cs3)nc2-c2csc(n2)-c2csc(n2)C(C(O)c2ccccc2)NC(=O)CNC(=O)c2nc1sc2C` (stereo not drawn) [Compound 20], for which the MIC in experiment [1] is listed as above 128 microgram/ml; in experiment [2], 0.25 microgram/ml; in experiment [3], 0.25 microgram/ml; in [4], 2 microgram/ml; in experiment [5], above 128 microgram/ml; in experiment [6] it was 0.25 microgram/ml. Also, the MIC in experiment [7] is given as above 128 microgram/ml; in [8], below 0.13 microgram/ml; in experiment [9] it was 0.03 microgram/ml; in experiment [10] it was above 128 microgram/ml.

As for `CNC(=O)CC1NC(=O)c2nc(sc2CO)C(C(C)C)NC(=O)c2csc(n2)-c2ccc(-c3nc(C(=O)NCCCCCC(=O)O)cs3)nc2-c2csc(n2)-c2csc(n2)C(C(O)c2ccccc2)NC(=O)CNC(=O)c2nc1sc2C` (stereo not drawn) [Compound 44], the MIC is on record as above 128 microgram/ml in experiment [1]; 0.5 microgram/ml in experiment [2]; 0.13 microgram/ml in experiment [3]; 1 microgram/ml in experiment [4]; above 128 microgram/ml in experiment [5]; 1 microgram/ml in experiment [6]. The MIC is above 128 microgram/ml in [7], 0.06 microgram/ml in experiment [8], 0.016 microgram/ml in experiment [9] and above 128 microgram/ml in experiment [10].

Turning to `CNC(=O)CC1NC(=O)c2nc(sc2COC)C(C(C)C)NC(=O)c2csc(n2)-c2ccc(-c3nc(C(=O)NCC=O)cs3)nc2-c2csc(n2)-c2csc(n2)C(C(O)c2ccccc2)NC(=O)CNC(=O)c2nc1sc2C` (stereo not drawn) [Compound 37], the MIC in experiment [1] was above 128 microgram/ml; in [2] it was 0.06 microgram/ml; in [3], 0.03 microgram/ml; in [4], above 128 microgram/ml; in experiment [5], above 128 microgram/ml; in experiment [6], 0.13 microgram/ml. Moreover, the MIC is given as above 128 microgram/ml in [7], 0.06 microgram/ml in [8], 0.004 microgram/ml in experiment [9] and above 128 microgram/ml in experiment [10].

The values above are taken from patent US5599791A, “Amides of antibiotic GE 2270 factors” (Gruppo Lepetit SPA, priority 1991, dated 1997).
